Experimental data taken from publication PMC8279981, “A first-in-human, phase 1 study of the NEDD8 activating enzyme E1 inhibitor TAS4464 in patients with advanced solid tumors” (Investigational New Drugs, 2021).

Test system: cullin-NEDD8 complexes in PBMC
Assay: Cullin-NEDD8 protein in PBMC by ELISA
Assay type: in vivo, human
Description: Assessment of pharmacodynamics included evaluation of cullin-NEDD8, p27^Kip1 protein expression, and cytokines in peripheral blood samples. Expression of cullin-NEDD8 protein in peripheral blood mononuclear cells (PBMC) was analyzed using an enzyme-linked immunosorbent assay (ELISA). For the weekly dosing cohorts, changes from baseline in cullin-NEDD8 complexes in the PBMC on Day 1 and Day 2 of Cycle 1 as measured by ELISA were evaluated. For the weekly dosing with lead-in period cohorts, changes from baseline in cullin-NEDD8 complexes on Day 2 were evaluated. Expression of p27^Kip1 protein (cyclin-dependent kinase inhibitor 1B), a substrate of CRL, was determined by immunohistochemistry (IHC). p27^Kip1 IHC was performed on biopsy tumor specimens collected at baseline and Day 2 of Cycle 1, and their staining intensities were assessed using H-Scoring, with the scores compared between baseline and Day 2 of Cycle 1. […]

CCOc1cccc(F)c1C#Cc1cn([C@@H]2O[C@H](CNS(N)(=O)=O)[C@@H](O)[C@H]2O)c2ncnc(N)c12 [TAS4464]
cullin-NEDD8 complex measurements in PBMC versus baseline (Day 1 of Cycle 1, no dose-dependency): lower than those at baseline in all patients
cullin-NEDD8 complex measurements in PBMC versus baseline (Day 2 of Cycle 1, dose dependency not observed): lower than those at baseline, with the exception of two patients
